Results reported in patent US8735414B2 (priority 2009, dated 2014).
pIC50: −log10 of the molar value.

Columns and labels:
[1] = test system: bicistronic HCV replicon (replicon RNA, GenBank Accession No. AJ242654); test: HCV Replicon Assay; assay type: cell-based; conditions: Hepatitis C virus, 72 h, read-out: Replicon IC50

Structure (SMILES)	melting point [°C]	pIC50 [1]
Cc1ccc2c(c1)c(C#N)c(-c1ncc(S(=O)(=O)NC(CF)CF)cn1)n2C1CCCCC1 [compound 198, 2-(3-cyano-1-cyclohexyl-5-methyl-1H-indol-2-yl)-N-(1,3-difluoropropan-2-yl)pyrimidine-5-sulfonamide]	211 to 215	5.70 to 6.30
COc1cc2c(C#N)c(-c3ccc(S(=O)(=O)N[C@@H](C)C(F)(F)F)cn3)n(C3CCC3)c2cc1C [compound 757, 6-(3-cyano-1-cyclobutyl-5-methoxy-6-methyl-1H-indol-2-yl)-N-[(2S)-1,1,1-trifluoropropan-2-yl]pyridine-3-sulfonamide]	222 to 223	5.70 to 6.30
NC(=O)c1c(-c2ccc(S(N)(=O)=O)cn2)n(C2CCC2)c2cc(OC(F)F)ccc12 [compound 568, 1-cyclobutyl-6-(difluoromethoxy)-2-(5-sulfamoylpyridin-2-yl)-1H-indole-3-carboxamide]	230 to 231	5.30 to 5.70
CC(C)NS(=O)(=O)c1ccc(-c2c(C#N)c3ccc(OC(F)(F)F)cc3n2C(C)C)nc1 [compound 12, 6-[3-cyano-1-(propan-2-yl)-6-(trifluoromethoxy)-1H-indol-2-yl]-N-(propan-2-yl)pyridine-3-sulfonamide]	160 to 162	5.70 to 6.30
C[C@@H](NS(=O)(=O)c1ccc(-c2c(C#N)c3cc(F)c(OC(F)F)cc3n2CC2CC2)nc1)C(F)(F)F [compound 789, 6-[3-cyano-1-(cyclopropylmethyl)-6-(difluoromethoxy)-5-fluoro-1H-indol-2-yl]-N-[(2R)-1,1,1-trifluoropropan-2-yl]pyridine-3-sulfonamide]	148 to 153	> 6.30
C[C@H](NS(=O)(=O)c1ccc(-c2c(C#N)c3ccc(F)cc3n2C2CCC2)nc1)C(F)(F)F [compound 395, 6-(3-cyano-1-cyclobutyl-6-fluoro-1H-indol-2-yl)-N-[(2S)-1,1,1-trifluoropropan-2-yl]pyridine-3-sulfonamide]	171 to 172	> 6.30
CC(C)c1ccc2c(C#N)c(-c3ccc(S(=O)(=O)NC(CF)CF)cn3)n(CC3CC3)c2c1 [compound 460, 6-[3-cyano-1-(cyclopropylmethyl)-6-(propan-2-yl)-1H-indol-2-yl]-N-(1,3-difluoropropan-2-yl)pyridine-3-sulfonamide]	132 to 134	> 6.30
COc1ccc2c(C#N)c(-c3ccc(S(=O)(=O)N[C@@H](C)C4CC4)cn3)n(C3CCCC3)c2c1 [compound 432, 6-(3-cyano-1-cyclopentyl-6-methoxy-1H-indol-2-yl)-N-[(1S)-1-cyclopropylethyl]pyridine-3-sulfonamide]	199 to 209	> 6.30
Cc1cc2c(cc1Cl)c(C(N)=O)c(-c1ncc(S(=O)(=O)N[C@@H](C)C(F)(F)F)cn1)n2C1CCC1 [compound 733, 5-chloro-1-cyclobutyl-6-methyl-2-(5-{[(2S)-1,1,1-trifluoropropan-2-yl]sulfamoyl}pyrimidin-2-yl)-1H-indole-3-carboxamide]	171 to 173	> 6.30
C[C@H](NS(=O)(=O)c1ccc(-c2c(C#N)c3ccc(C(F)F)cc3n2C2CCC2)nc1)C(F)(F)F [compound 363, 6-[3-cyano-1-cyclobutyl-6-(difluoromethyl)-1H-indol-2-yl]-N-[(2S)-1,1,1-trifluoropropan-2-yl]pyridine-3-sulfonamide]	198 to 207	> 6.30
Cc1ccc2c(C#N)c(-c3ncc(S(=O)(=O)N[C@@H](C)C4CC4)cn3)n(C3CCCC3)c2c1 [compound 204, 2-(3-cyano-1-cyclopentyl-6-methyl-1H-indol-2-yl)-N-[(1S)-1-cyclopropylethyl]pyrimidine-5-sulfonamide]	180 to 182	> 6.30
CC(C)NS(=O)(=O)c1cnc(-c2c(C#N)c3ccc(OC(F)F)cc3n2C2CCCCC2)nc1 [compound 473, 2-[3-cyano-1-cyclohexyl-6-(difluoromethoxy)-1H-indol-2-yl]-N-(propan-2-yl)pyrimidine-5-sulfonamide]	176 to 179	> 6.30
Cc1ccc2c(c1)c(C#N)c(-c1ccc(S(=O)(=O)N[C@@H](C)C(F)(F)F)cn1)n2CC1CC1 [compound 372, 6-[3-cyano-1-(cyclopropylmethyl)-5-methyl-1H-indol-2-yl]-N-[(2S)-1,1,1-trifluoropropan-2-yl]pyridine-3-sulfonamide]	175 to 180	> 6.30
N#Cc1c(-c2ncc(S(=O)(=O)NC(CF)CF)cn2)n(C2CCCC2)c2ccc(F)cc12 [compound 240, 2-(3-cyano-1-cyclopentyl-5-fluoro-1H-indol-2-yl)-N-(1,3-difluoropropan-2-yl)pyrimidine-5-sulfonamide]	201 to 206	> 6.30
Cc1cc(F)c2c(C#N)c(-c3ccc(S(=O)(=O)NC4(C(F)(F)F)CC4)cn3)n(C3CCCC3)c2c1 [compound 628, 6-(3-cyano-1-cyclopentyl-4-fluoro-6-methyl-1H-indol-2-yl)-N-[1-(trifluoromethyl)cyclopropyl]pyridine-3-sulfonamide]	242 to 246	> 6.30
Cc1c(F)cc2c(C#N)c(-c3ccc(S(=O)(=O)N[C@@H](C)C(F)(F)F)cn3)n(C3CCC3)c2c1F [compound 532, 6-(3-cyano-1-cyclobutyl-5,7-difluoro-6-methyl-1H-indol-2-yl)-N-[(2S)-1,1,1-trifluoropropan-2-yl]pyridine-3-sulfonamide]	186 to 191	> 6.30
N#Cc1c(-c2ccc(S(=O)(=O)NC3(C(F)(F)F)CC3)cn2)n(C2CCCC2)c2cc(OC(F)F)ccc12 [compound 94, 6-[3-cyano-1-cyclopentyl-6-(difluoromethoxy)-1H-indol-2-yl]-N-[1-(trifluoromethyl)cyclopropyl]pyridine-3-sulfonamide]	186 to 193	> 6.30
Cc1ccc2c(C#N)c(-c3ccc(NS(=O)(=O)C4CC4)cn3)n(C3CCCC3)c2c1 [compound 296, N-[6-(3-cyano-1-cyclopentyl-6-methyl-1H-indol-2-yl)pyridin-3-yl]cyclopropanesulfonamide]	241 to 245	5.30 to 5.70
CC(C)Oc1ccc2c(C#N)c(-c3ccc(NS(=O)(=O)C(C)C)cn3)n(CC3CC3)c2c1 [compound 281, N-{6-[3-cyano-1-(cyclopropylmethyl)-6-(propan-2-yloxy)-1H-indol-2-yl]pyridin-3-yl}propane-2-sulfonamide]	168 to 172	5.70 to 6.30
CC(C)(NS(=O)(=O)c1ccc(-c2c(C(N)=O)c3cc(F)c(OC(F)F)cc3n2C2CCCC2)nc1)C(F)(F)F [compound 863, 1-cyclopentyl-6-(difluoromethoxy)-5-fluoro-2-{5-[(1,1,1-trifluoro-2-methylpropan-2-yl)sulfamoyl]pyridin-2-yl}-1H-indole-3-carboxamide]	215 to 217	> 6.30
Cc1cc2c(cc1F)c(C#N)c(-c1ccc(S(=O)(=O)N[C@H](C)C(F)(F)F)cn1)n2-c1ccccn1 [compound 698, 6-[3-cyano-5-fluoro-6-methyl-1-(pyridin-2-yl)-1H-indol-2-yl]-N-[(2R)-1,1,1-trifluoropropan-2-yl]pyridine-3-sulfonamide]	170 to 174	> 6.30
CCc1cc2c(cc1F)c(C#N)c(-c1ccc(S(=O)(=O)N[C@@H](C)C(F)(F)F)cn1)n2-c1cc(C)ccn1 [compound 932, 6-[3-cyano-6-ethyl-5-fluoro-1-(4-methylpyridin-2-yl)-1H-indol-2-yl]-N-[(2S)-1,1,1-trifluoropropan-2-yl]pyridine-3-sulfonamide]	188 to 190	> 6.30
CC(C)NS(=O)(=O)c1cnc(-c2c(C#N)c3ccc(F)cc3n2C2CCCC2)nc1 [compound 141, 2-(3-cyano-1-cyclopentyl-6-fluoro-1H-indol-2-yl)-N-(propan-2-yl)pyrimidine-5-sulfonamide]	216 to 217	5.70 to 6.30
Cc1cc2c(cc1Cl)c(C#N)c(-c1ccc(S(=O)(=O)NC(CF)CF)cn1)n2C1CCC1 [compound 444, 6-(5-chloro-3-cyano-1-cyclobutyl-6-methyl-1H-indol-2-yl)-N-(1,3-difluoropropan-2-yl)pyridine-3-sulfonamide]	189 to 193	> 6.30
Cc1cc2c(C#N)c(-c3ccc(S(=O)(=O)NC(CF)CF)cn3)n(C3CCCC3)c2cc1Cl [compound 521, 6-(6-chloro-3-cyano-1-cyclopentyl-5-methyl-1H-indol-2-yl)-N-(1,3-difluoropropan-2-yl)pyridine-3-sulfonamide]	217.5 to 218	> 6.30
C[C@H](NS(=O)(=O)c1ccc(-c2c(C#N)c3ccc(OC(F)F)cc3n2-c2ccccn2)nc1)C(F)(F)F [compound 387, 6-[3-cyano-6-(difluoromethoxy)-1-(pyridin-2-yl)-1H-indol-2-yl]-N-[(2S)-1,1,1-trifluoropropan-2-yl]pyridine-3-sulfonamide]	199 to 203	> 6.30
N#Cc1c(-c2ccc(S(=O)(=O)NC(CF)CF)cn2)n(C2CCC2)c2ccc(F)cc12 [compound 29, 6-(3-cyano-1-cyclobutyl-5-fluoro-1H-indol-2-yl)-N-(1,3-difluoropropan-2-yl)pyridine-3-sulfonamide]	206 to 208	> 6.30
N#Cc1c(-c2ncc(S(=O)(=O)NC(CF)CF)cn2)n(C2CCCC2)c2ccc(C(F)F)cc12 [compound 536, 2-[3-cyano-1-cyclopentyl-5-(difluoromethyl)-1H-indol-2-yl]-N-(1,3-difluoropropan-2-yl)pyrimidine-5-sulfonamide]	176 to 177	> 6.30
CC(C)(NS(=O)(=O)c1ccc(-c2c(C#N)c3cc(F)c(OC(F)F)cc3n2C2CCC2)nc1)C(F)(F)F [compound 676, 6-[3-cyano-1-cyclobutyl-6-(difluoromethoxy)-5-fluoro-1H-indol-2-yl]-N-(1,1,1-trifluoro-2-methylpropan-2-yl)pyridine-3-sulfonamide]	162 to 165	> 6.30
